Where two headings read alike, the source gives them in different places.
How the values were obtained:
[1] = target: T1, calf thymus topoisomerase I (Bos taurus, UniProt F1MN93); conditions: for PERCENTAGE OF RELAXED DNA: relaxed DNA with respect to total DNA, pUC 19, 37° C. 15 min
T1 sequence (F1MN93 1-767): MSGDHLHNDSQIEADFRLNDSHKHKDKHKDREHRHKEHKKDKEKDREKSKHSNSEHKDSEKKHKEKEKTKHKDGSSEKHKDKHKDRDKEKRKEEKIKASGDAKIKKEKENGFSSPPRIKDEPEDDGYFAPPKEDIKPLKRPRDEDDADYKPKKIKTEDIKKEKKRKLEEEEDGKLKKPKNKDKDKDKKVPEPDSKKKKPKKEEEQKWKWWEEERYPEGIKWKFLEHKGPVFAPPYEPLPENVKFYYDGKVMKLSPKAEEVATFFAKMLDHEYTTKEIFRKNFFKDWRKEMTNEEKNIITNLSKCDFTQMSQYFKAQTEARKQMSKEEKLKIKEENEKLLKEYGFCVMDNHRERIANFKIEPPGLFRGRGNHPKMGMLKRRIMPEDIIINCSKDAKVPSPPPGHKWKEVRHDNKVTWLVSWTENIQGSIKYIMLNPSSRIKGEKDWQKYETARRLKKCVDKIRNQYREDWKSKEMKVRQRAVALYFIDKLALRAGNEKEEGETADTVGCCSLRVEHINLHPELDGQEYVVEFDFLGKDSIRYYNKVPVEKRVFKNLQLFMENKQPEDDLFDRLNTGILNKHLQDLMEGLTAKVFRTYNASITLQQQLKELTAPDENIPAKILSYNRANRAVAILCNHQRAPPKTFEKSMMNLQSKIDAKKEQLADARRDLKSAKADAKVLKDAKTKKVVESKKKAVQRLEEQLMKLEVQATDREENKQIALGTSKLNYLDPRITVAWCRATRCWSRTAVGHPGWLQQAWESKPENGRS
Protocol: 1. Inhibition test of the relaxation of supercoiled DNA induced by topoisomerase I.
Supercoiled plasmidic DNA (pUC 19, Pharmacia Biotech, Orsay, France, 300 ng) is incubated at 37° C. for 15 min in the presence of calf thymus topoisomerase I (Gibco-BRL, Paisley, United Kingdom, 1 unit) in 20 μl of reaction buffer (Tris-HCl pH 7.5:50 mM, KCl: 50 mM, DTT: 0.5 mM, MgCl2: 10 mM, EDTA: 0.1 mM, bovine serum albumin: 0.030 mg/ml) and of a potentiel inhibitor (prepared in a 50 mM extemporaneous solution in dimethylsulphoxide, then diluted with distilled water in order to obtain a final concentration of 500 μM, 200 μM, 100 μM or 10 μM, not exceeding 1% of dimethylsulphoxide). The reaction is stopped by the addition of 3 μl of a denaturing solution (proteinase K: 500 μg/ml, sodium dodecylsulphate: 1%, EDTA: 20 mM) followed by incubation at 37° C. for 30 min, then 2 μl of a loading buffer (bromophenol blue: 0.3%, sodium hydrogen phosphate: 10 mM, polysucrose Ficoll®-400: 16%) are added and the sample is placed on a 1.2% agarose gel (Sea-Kem-GTG, FMC Bioproducts/Tebu, Perray-en-Yvelines, France) containing 2 μg/ml of chloroquine. The electrophoretic migration is carried out at a voltage of 1V/cm for 20 hours, with recirculation of the electrophoresis buffer (Tris-HCl: 36 mM, sodium dihydrogen phosphate: 30 mM, EDTA: 1 mM). The gel is then stained under agitation with 2 μg/ml ethidium bromide, then photographed under ultraviolet light at 312 nm (CCD camera Vilber-Lourmat, Lyon, France). Densitometric analysis (BioProfil image analyzer Vilber-Lourmat, Lyon, France) allows the percentage of relaxed DNA with respect to total DNA to be expressed, at the chosen concentration of inhibitor.

topoisomerase II = conditions: for PERCENTAGE OF RELAXED DNA: relaxed DNA with respect to total DNA, pUC 19, 37° C. 15 min
Protocol: 2. Inhibition test of the relaxation of supercoiled DNA induced by topoisomerase II.
Supercoiled plasmidic DNA (pUC 19, Pharmacia Biotech, Orsay, France, 300 ng) is incubated at 37° C. for 15 min in the presence of calf thymus […] (Gibco-BRL, Paisley, United Kingdom, 7 units) in 20 μl of reaction buffer (Tris-HCl pH 7.9: 10 mM, KCl: 50 mM, NaCl: 50 mM, MgCl2: 5 mM, ATP: 1 mM, EDTA: […], bovine serum albumin: 15 mg/ml) and of a potential inhibitor (prepared in a 50 mM extemporaneous solution in dimethylsulphoxide, then diluted with distilled water in order to obtain a final concentration of 500 μM, 200 μM, 100 μM or 10 μM, not exceeding 1% of dimethylsulphoxide). The reaction is stopped by the addition of 3 μl of a denaturing solution (proteinase K: 500 μg/ml, sodium dodecylsulphate: 1%, EDTA: 20 mM) followed by incubation at 37° C. for 30 min, then 2 μl of a loading buffer (bromophenol blue: 0.3%, sodium hydrogen phosphate: 10 mM, polysucrose Ficoll®-400: 16%) are added and the sample is placed on a 1.2% agarose gel (Sea-Kem-GTG, FMC Bioproducts/Tebu, Perray-en-Yvelines, France) containing 2 μg/ml of chloroquine. The electrophoretic migration is carried out at a voltage of 1V/cm for 20 hours, with recirculation of the electophoresis buffer (Tris-HCl: 36 mM, sodium dihydrogen phosphate: 30 mM, EDTA: 1 mM). The gel is then stained under agitation with 2 μg/ml ethidium bromide, then photographed under ultraviolet light at 312 nm (CCD camera Vilber-Lourmat, Lyon, France). Densitometric analysis (BioProfil image analyzer Vilber-Lourmat, Lyon, France) allows the percentage of relaxed DNA with respect to the total DNA to be expressed, at the chosen concentration of inhibitor.

[2] = at concentrations greater than 10 μM

| Compound | inhibition of topoisomerase I compared with camptothecin [1, 2] | PERCENTAGE OF RELAXED DNA ([1]; inhibitor concentration 10 μM) [%] | PERCENTAGE OF RELAXED DNA ([1]; inhibitor concentration 100 μM) [%] | PERCENTAGE OF RELAXED DNA ([1]; inhibitor concentration 200 μM) [%] | PERCENTAGE OF RELAXED DNA ([1]; inhibitor concentration 500 μM) [%] | inhibition of topoisomerase II compared with etoposide (topoisomerase II; [2]) | PERCENTAGE OF RELAXED DNA (topoisomerase II; inhibitor concentration 10 μM) [%] | PERCENTAGE OF RELAXED DNA (topoisomerase II; inhibitor concentration 100 μM) [%] | PERCENTAGE OF RELAXED DNA (topoisomerase II; inhibitor concentration 200 μM) [%] | PERCENTAGE OF RELAXED DNA (topoisomerase II; inhibitor concentration 500 μM) [%] |
| --- | --- | --- | --- | --- | --- | --- | --- | --- | --- | --- |
| CCC(O)(CC(=O)O)c1cc2n(c(=O)c1)Cc1cc3ccccc3nc1-2 (stereo not drawn) [Example 6, 3-Hydroxy-3-(4-oxo-4,6-dihydroindolizino[1,2-b]quinoline-2-yl)pentanoic Acid] | better inhibitor of topoisomerase I than camptothecin | 95.2 ± 2.8 | 28.5 ± 3.5 | 15.5 ± 3.6 | 10.3 ± 2.8 | better inhibitor of topoisomerase II than etoposide | 98.8 ± 0.4 | 9.9 ± 0.7 | 11.5 ± 1.9 | 6.5 ± 1.0 |
| COc1cc([C@@H]2c3cc4c(cc3[C@@H](O[C@@H]3O[C@@H]5CO[C@@H](C)O[C@H]5[C@H](O)[C@H]3O)[C@H]3COC(=O)[C@H]23)OCO4)cc(OC)c1O [Etoposide, reference compound] |  |  |  |  |  |  | 92.6 ± 2.5 | 28.5 ± 2.2 | 18.6 ± 1.4 | 12.0 ± 0.8 |
| CC[C@@]1(O)C(=O)OCc2c1cc1n(c2=O)Cc2cc3ccccc3nc2-1 [Camptothecin] |  | 95.5 ± 1.4 | 64.2 ± 6.1 | 60.6 ± 12.0 | 55.6 ± 8.8 |  |  |  |  |  |

— patent publication US6632946B2, “Tetracyclic analogues of camptothecins, their preparation processes, their use as medicaments and the pharmaceutical compositions containing them” (Societe de Conseils de Recherches et d'Applications …, priority 1997, dated 2003)
